This is an account of results in patent publication US20240174723A1, “STAPLED ANTIMICROBIAL PEPTIDES (STAMPS) AND USES THEREOF” (Lytica Therapeutics, Inc., priority 2021, published 2024).

Converted amounts (≈) assume the structure as drawn. Positions of bridges follow the written chain, without caps; N, C: chain ends. Non-standard residues stand in square brackets, D forms with d. Residues, ends and D or L forms follow the SMILES beside them. S5 = C=CCCC[C@](C)(N)C(=O)O; Dap = NC[C@H](N)C(=O)O Where only a bound is given, the exact number is not on record here.

The subject of data set [1] is A. baumannii. It counts as cell-based, Acinetobacter baumannii. The procedure: (§1) Antimicrobial Activity Assay: The following microbroth dilution protocol was adapted from CLSI to determine the minimum inhibitory concentration (MIC) of StAMPs. Briefly, Mueller-Hinton broth (MHB) or cation-adjusted Mueller-Hinton broth (MHB II) was prepared and autoclaved. Then, a colony of bacterial cells was picked and grown overnight in broth at 37° C. and then diluted and allowed to grow again for 3-4 hours. Serial dilutions of peptide stocks in water (10 μl) were prepared using clear round-bottom polypropylene 96-well plates. Then 90 μl of bacteria in broth was added to give a final inoculum of 5×10^5 CFU/ml. The plates were then covered with porous tape to reduce evaporation and incubated for 20-24 hours at 37° C. The MIC was the minimum peptide concentration at which no visible bacterial growth was observed.
(§2) Renal toxicity was measured after 90 minutes of incubation, while liver toxicity was measured after 48 hours of incubation with StAMPs. N/A=not tested. The following apply to all peptides (i.e., StAMPs) listed in Tables A-C: Crosslinks (X^1—X^2 and X^3—X^4): (alk); N-terminus: —NH2; C-terminus: amidated with —NH2; counterion: Cl^−. The following apply to all peptides (i.e., StAMPs) listed in Table D: Crosslinks (X^1—X^2 and X^3—X^4): (alk); N-terminus: —NH2; C-terminus: as shown in table; counterion: Cl^−.

In data set [2] the test system is S. aureus. In kind it is cell-based, Staphylococcus aureus. As to the method:
as §1, §2

Data set [3] in a line: in vitro. In kind it is cell-based. The conditions noted are these: human, Inhibitory Concentration at 50% Cytotoxicity (IC50) Human Liver Cells (HepG2). As to the method: Cell culture: RPTEC were maintained in MEM media supplemented with growth factors. HEPG2 cell line was maintained in Eagle's Minimum Essential Medium (EMEM) supplemented with fetal bovine serum to a final concentration of 10%.
48 hours cytotoxicity assay: Cells were plated in a 96-well format, and after 4 hour incubation to allow attachment, serial dilutions of StAMPs from a 5 mg/mL water stock, or vehicle, were then added to the cells in a final volume of 100 μl. After incubating at 37° C. for 48 hours, 100 μl of CellTiter-Glo® reagent was added to the cells, and the plates were incubated 10 minutes at room temperature. Luminescence was then measured on a microplate reader.
as §2

The subject of data set [4] is E. coli. In kind it is cell-based, Escherichia coli. The procedure:
as §1, §2

For data set [5], the system named is P. aeruginosa. It counts as cell-based, Pseudomonas aeruginosa. As to the method:
as §1, §2
StAMP Micelle Formulation: DSPE-MPEG(2000) was suspended in buffered saline at 50-100 mg/mL overnight. StAMP stock solutions at 5-20 mg/mL in buffered saline were prepared and equal volumes of micelle and StAMP stock solution were mixed at the desired StAMP:Lipid ratio. Suspensions were allowed to sit for 5-10 minutes at room temperature before being used in in vitro and in vivo assays. […]

Data set [6] has as its system K. pneumoniae. In kind it is cell-based, Klebsiella pneumoniae. As to the method: as §1, §2

By IC50 is commonly meant the point on the concentration scale where inhibition reaches its midpoint. With `CC(C)[C@@H]1NC(=O)[C@@](C)(NC(=O)[C@H](C)NC(=O)[C@H](CCCCN)NC(=O)CNC(=O)[C@H](Cc2ccccc2)NC(=O)[C@H](CCCCN)NC(=O)[C@H](CCCCN)NC(=O)[C@H](CCCCN)NC(=O)[C@H](CCCCN)NC(=O)[C@H](CN)NC(=O)[C@]2(C)CCCC=CCCC[C@](C)(NC(=O)CN)C(=O)NCC(=O)N[C@@H](CCCCN)C(=O)N[C@@H](Cc3ccccc3)C(=O)N2)CCCC=CCCC[C@@](C)(C(=O)N[C@@H](C)C(=O)N[C@@H](CCCCN)C(=O)N[C@@H](CCCCN)C(N)=O)NC(=O)[C@H](CCC(=O)O)NC(=O)CNC1=O` [compound 46] (H-G[S5]GKF[S5][Dap]KKKKFGKA[S5]VGE[S5]AKK-NH2; staple 2-6, 16-20), the “Minimum Inhibitory Concentration (MIC) A. baumannii” value in data set [1] was 2 mg/L. Besides, the “Minimum Inhibitory Concentration (MIC) S. aureus” value in data set [2] was found to be 64 mg/L. The molecule further returned an IC50 at 48 hours in data set [3] of 299 mg/L (≈ 119 µM). Moreover, the “Minimum Inhibitory Concentration (MIC) E. coli” value in data set [4] turned out to be 2 mg/L. In addition, the “Minimum Inhibitory Concentration (MIC) P. aeruginosa” value in data set [5] is 4 mg/L. Also, the “Minimum Inhibitory Concentration (MIC) K. pneumoniae” value in data set [6] was found to be 8 mg/L.
`CC(C)[C@@H]1NC(=O)[C@@](C)(NC(=O)[C@H](C)NC(=O)[C@H](CCCCN)NC(=O)[C@H](CO)NC(=O)[C@H](Cc2ccccc2)NC(=O)[C@H](CCCCN)NC(=O)[C@H](CCCCN)NC(=O)[C@H](CCCCN)NC(=O)[C@H](CCCCN)NC(=O)[C@H](CCCCN)NC(=O)[C@]2(C)CCCC=CCCC[C@](C)(NC(=O)CN)C(=O)NCC(=O)N[C@@H](CCCCN)C(=O)N[C@@H](Cc3ccccc3)C(=O)N2)CCCC=CCCC[C@@](C)(C(=O)N[C@@H](C)C(=O)N[C@@H](CCCCN)C(=O)N[C@@H](CCCCN)C(=O)NCC(=O)NCC(=O)N[C@@H](CCC(=O)O)C(N)=O)NC(=O)[C@H](CCC(=O)O)NC(=O)CNC1=O` [compound 91] (H-G[S5]GKF[S5]KKKKKFSKA[S5]VGE[S5]AKKGGE-NH2; staple 2-6, 16-20): the “Minimum Inhibitory Concentration (MIC) A. baumannii” value in data set [1] is 4 mg/L. Also, the “Minimum Inhibitory Concentration (MIC) S. aureus” value in data set [2] is more than 64 mg/L. This molecule came in with an IC50 at 48 hours in data set [3] of more than 200 mg/L. The “Minimum Inhibitory Concentration (MIC) E. coli” value in data set [4] came to 64 mg/L. Also, the “Minimum Inhibitory Concentration (MIC) P. aeruginosa” value in data set [5] came to 64 mg/L. Besides, the “Minimum Inhibitory Concentration (MIC) K. pneumoniae” value in data set [6] is more than 64 mg/L.
Take `CC(C)[C@@H]1NC(=O)[C@@](C)(NC(=O)[C@H](C)NC(=O)[C@H](CCCCN)NC(=O)CNC(=O)[C@H](Cc2ccccc2)NC(=O)[C@H](CCCCN)NC(=O)[C@H](CCCCN)NC(=O)[C@H](CCCCN)NC(=O)[C@H](CCCCN)NC(=O)[C@H](CCCCN)NC(=O)[C@]2(C)CCCC=CCCC[C@](C)(NC(=O)CN)C(=O)NCC(=O)N[C@@H](CN)C(=O)N[C@@H](Cc3ccccc3)C(=O)N2)CCCC=CCCC[C@@](C)(C(=O)N[C@@H](C)C(=O)N[C@@H](CCCCN)C(=O)N[C@@H](CCCCN)C(N)=O)NC(=O)[C@H](CCC(=O)O)NC(=O)CNC1=O` [compound 45] (H-G[S5]G[Dap]F[S5]KKKKKFGKA[S5]VGE[S5]AKK-NH2; staple 2-6, 16-20): the “Minimum Inhibitory Concentration (MIC) A. baumannii” value in data set [1] worked out at 2 mg/L. For the same molecule, in data set [2], the “Minimum Inhibitory Concentration (MIC) S. aureus” value was more than 64 mg/L. Besides, the midpoint of inhibition in data set [3], the IC50 at 48 hours, lay at 104 mg/L (≈ 41.2 µM). Also, the “Minimum Inhibitory Concentration (MIC) E. coli” value in data set [4] was found to be 2 mg/L. Further, the “Minimum Inhibitory Concentration (MIC) P. aeruginosa” value in data set [5] stood at 4 mg/L. Also, the “Minimum Inhibitory Concentration (MIC) K. pneumoniae” value in data set [6] was determined as 4 mg/L.
In the case of `CC(C)[C@@H]1NC(=O)[C@@](C)(NC(=O)[C@H](C)NC(=O)[C@H](CCCCN)NC(=O)CNC(=O)[C@H](Cc2ccccc2)NC(=O)[C@H](CCCCN)NC(=O)[C@H](CCCCN)NC(=O)[C@H](CCCCN)NC(=O)[C@H](CO)NC(=O)[C@H](CN)NC(=O)[C@]2(C)CCCC=CCCC[C@](C)(NC(=O)CN)C(=O)NCC(=O)N[C@@H](CCCCN)C(=O)N[C@@H](Cc3ccccc3)C(=O)N2)CCCC=CCCC[C@@](C)(C(=O)N[C@@H](C)C(=O)N[C@@H](CCCCN)C(=O)N[C@@H](CCCCN)C(N)=O)NC(=O)[C@H](CCC(=O)O)NC(=O)CNC1=O` [compound 85] (H-G[S5]GKF[S5][Dap]SKKKFGKA[S5]VGE[S5]AKK-NH2; staple 2-6, 16-20), in data set [1], the “Minimum Inhibitory Concentration (MIC) A. baumannii” value stood at 0.5 mg/L. Further, the “Minimum Inhibitory Concentration (MIC) S. aureus” value in data set [2] turned out to be 64 mg/L. The molecule also yielded an IC50 at 48 hours in data set [3] of more than 200 mg/L. The “Minimum Inhibitory Concentration (MIC) E. coli” value in data set [4] stood at 2 mg/L. Further, in data set [5], the “Minimum Inhibitory Concentration (MIC) P. aeruginosa” value was found to be 2 mg/L. Moreover, in data set [6], the “Minimum Inhibitory Concentration (MIC) K. pneumoniae” value is 16 mg/L.
`CC(C)[C@@H]1NC(=O)[C@@](C)(NC(=O)[C@H](C)NC(=O)[C@H](CCCCN)NC(=O)CNC(=O)[C@H](Cc2ccccc2)NC(=O)[C@H](CCCCN)NC(=O)[C@H](CCCCN)NC(=O)[C@H](CCCCN)NC(=O)[C@H](CO)NC(=O)[C@H](CCCCN)NC(=O)[C@]2(C)CCCC=CCCC[C@](C)(NC(=O)CN)C(=O)NCC(=O)N[C@@H](CCCCN)C(=O)N[C@@H](Cc3ccccc3)C(=O)N2)CCCC=CCCC[C@@](C)(C(=O)N[C@@H](C)C(=O)N[C@@H](CCCCN)C(=O)N[C@@H](CCCCN)C(=O)NCC(=O)NCC(=O)N[C@@H](CCC(=O)O)C(N)=O)NC(=O)[C@H](CCC(=O)O)NC(=O)CNC1=O` [compound 90] (H-G[S5]GKF[S5]KSKKKFGKA[S5]VGE[S5]AKKGGE-NH2; staple 2-6, 16-20): the “Minimum Inhibitory Concentration (MIC) A. baumannii” value in data set [1] is 2 mg/L. Also, in data set [2], the “Minimum Inhibitory Concentration (MIC) S. aureus” value was 64 mg/L. Besides, the IC50 at 48 hours in data set [3] was more than 200 mg/L. In data set [4], the “Minimum Inhibitory Concentration (MIC) E. coli” value came out at 4 mg/L. Further, the “Minimum Inhibitory Concentration (MIC) P. aeruginosa” value in data set [5] came out at 2 mg/L. Besides, the “Minimum Inhibitory Concentration (MIC) K. pneumoniae” value in data set [6] stood at 32 mg/L.
Turning to `CC(C)[C@@H]1NC(=O)[C@@](C)(NC(=O)[C@H](C)NC(=O)[C@H](CCCCN)NC(=O)CNC(=O)[C@H](Cc2ccccc2)NC(=O)[C@H](CCCCN)NC(=O)[C@H](CCCCN)NC(=O)[C@H](CCCCN)NC(=O)[C@H](CCCCN)NC(=O)[C@H](CN)NC(=O)[C@]2(C)CCCC=CCCC[C@](C)(NC(=O)CN)C(=O)NCC(=O)N[C@@H](CCCCN)C(=O)N[C@@H](Cc3ccccc3)C(=O)N2)CCCC=CCCC[C@@](C)(C(=O)N[C@@H](CO)C(=O)N[C@@H](CCCCN)C(=O)N[C@@H](CCCCN)C(N)=O)NC(=O)[C@H](CCC(=O)O)NC(=O)CNC1=O` [compound 89] (H-G[S5]GKF[S5][Dap]KKKKFGKA[S5]VGE[S5]SKK-NH2; staple 2-6, 16-20), the “Minimum Inhibitory Concentration (MIC) A. baumannii” value in data set [1] worked out at 1 mg/L. Further, the “Minimum Inhibitory Concentration (MIC) S. aureus” value in data set [2] worked out at 64 mg/L. Also, the IC50 at 48 hours in data set [3] came out at 199 mg/L (≈ 78.4 µM). Further, in data set [4], the “Minimum Inhibitory Concentration (MIC) E. coli” value was determined as 2 mg/L. In addition, the “Minimum Inhibitory Concentration (MIC) P. aeruginosa” value in data set [5] is 1 mg/L. Further, the “Minimum Inhibitory Concentration (MIC) K. pneumoniae” value in data set [6] turned out to be 32 mg/L.
Consider `CC(C)[C@@H]1NC(=O)[C@@](C)(NC(=O)[C@H](C)NC(=O)[C@H](CCCCN)NC(=O)CNC(=O)[C@H](Cc2ccccc2)NC(=O)[C@H](CCCCN)NC(=O)[C@H](CCCCN)NC(=O)[C@H](CN)NC(=O)[C@H](CCCCN)NC(=O)[C@H](CCCCN)NC(=O)[C@]2(C)CCCC=CCCC[C@](C)(NC(=O)CN)C(=O)NCC(=O)N[C@@H](CCCCN)C(=O)N[C@@H](Cc3ccccc3)C(=O)N2)CCCC=CCCC[C@@](C)(C(=O)N[C@@H](C)C(=O)N[C@@H](CCCCN)C(=O)N[C@@H](CCCCN)C(=O)NCC(=O)NCC(=O)N[C@@H](CCC(=O)O)C(N)=O)NC(=O)[C@H](CCC(=O)O)NC(=O)CNC1=O` [compound 81] (H-G[S5]GKF[S5]KK[Dap]KKFGKA[S5]VGE[S5]AKKGGE-NH2; staple 2-6, 16-20), for which the “Minimum Inhibitory Concentration (MIC) A. baumannii” value in data set [1] was determined as 4 mg/L. Also, the “Minimum Inhibitory Concentration (MIC) S. aureus” value in data set [2] is more than 64 mg/L. The same molecule came in with a half-maximal inhibitory concentration (IC50) at 48 hours in data set [3] of more than 200 mg/L. The “Minimum Inhibitory Concentration (MIC) E. coli” value in data set [4] was 8 mg/L. The “Minimum Inhibitory Concentration (MIC) P. aeruginosa” value in data set [5] was 16 mg/L. In addition, the “Minimum Inhibitory Concentration (MIC) K. pneumoniae” value in data set [6] was determined as 64 mg/L.
